Measured values taken from patent US20240252517A1, “MINERALOCORTICOID RECEPTOR ANTAGONISTS FOR THE PREVENTION AND/OR TREATMENT OF A CORONAVIRUS INFECTION” (Imaginatives Group Limited, priority 2021, published 2024).

Tests used:
COVID-19 = settings: cited from earlier work
endothelial cells = settings: MR activation; result in words; cited from earlier work

In the case of `C[C@]12CCC(=O)C=C1C=C[C@@H]1[C@@H]2CC[C@@]2(C)[C@H]1CC[C@@]21CCC(=O)O1` [canrenone], the Patients requiring ventilation (COVID-19; group B given canrenone, group A 49%) is listed as 20%, the Mortality (COVID-19; group B given canrenone, group A conventional treatment 36%) is listed as 13% and the D-Dimer levels (COVID-19; result in words, rose significantly in control group) is listed as “fell”.

In the case of `CC(=O)S[C@@H]1CC2=CC(=O)CC[C@]2(C)[C@H]2CC[C@@]3(C)[C@@H](CC[C@@]34CCC(=O)O4)[C@H]12` [spironolactone], the “Exocytosis of Weibel-Palade bodies / Von Willebrand Factor” value (endothelial cells) is listed as “blocked”.

In the case of `C[C@@H]1C[C@H]2[C@@H]3CCC4=CC(=O)C=C[C@]4(C)[C@@]3(F)[C@@H](O)C[C@]2(C)[C@@]1(O)C(=O)CO` [HIDEX, dexamethasone], the “Resorption of pneumonia on day 5 (number of patients)” value (SARS-CoV-2; 120 h) is reported as 15, the “Fasting glucose” value (SARS-CoV-2; after 5 d, mean ± SD, baseline HIDEX 5.9 ± 2.0, SPIDEX 6.89 ± 3.22) is reported as 11.69 ± 6.21 mmol/L and the Breath rate/min (SARS-CoV-2; after 5 d, mean ± SD, baseline HIDEX 24.8 ± 4.6, SPIDEX 24.2 ± 4.1) is reported as 18.4 ± 3.1 min⁻¹. The “CRP” value (SARS-CoV-2; after 5 d, mean ± SD, baseline HIDEX 72.4 ± 61.7, SPIDEX 65.75 ± 50.9) was 28.1 ± 22.9 mg/L, the HR/min (SARS-CoV-2; after 5 d, mean ± SD, baseline HIDEX 84.7 ± 10.8, SPIDEX 83.8 ± 11.8) was 89.1 ± 10.6 min⁻¹ and the “BPdiast., mm Hg” value (SARS-CoV-2; after 5 d, mean ± SD, baseline HIDEX 86 ± 8.6, SPIDEX 85.25 ± 12.40) was 89.0 ± 10.6 mm Hg. The “Blood oxygen, %” value (SARS-CoV-2; after 5 d, mean ± SD, baseline HIDEX 91.8 ± 3.6, SPIDEX 91.7 ± 3.3) was 94.1 ± 3.0%, the “D-dimer” value (SARS-CoV-2; after 5 d, mean ± SD, baseline HIDEX 736.7 ± 680.6, SPIDEX 755.5 ± 606.1) was 574.8 ± 306.4 ng/mL and the “CRP, mg/l (range in brackets)” value (SARS-CoV-2; after 5 d, range, baseline HIDEX 6.4-204, SPIDEX 10.2-209) was “(2.8-83.5) mg/l”. For the same compound, the “D-dimer, ng/ml (range in brackets)” value (SARS-CoV-2; after 5 d, range, baseline HIDEX 85-2500, SPIDEX 145-2500) was “(38-2800) ng/ml”, the “Fasting blood glucose compared to baseline” value (SARS-CoV-2; after 5 d, result in words) was “significantly elevated” and the “Loss of smell/taste, % of patients” value (SARS-CoV-2; after 5 days treatment, baseline 85% (spironolactone/low dose dexamethasone), 82.5% (high dose dexamethasone)) was 75%. The “BPsyst., mm Hg” value (SARS-CoV-2; after 5 d of treatment, mean ± SD, baseline HIDEX 139.6 ± 15.5, SPIDEX 137.5 ± 22.5) was 150.1 ± 20.1 mm Hg, the “Deaths (number of patients)” value (SARS-CoV-2; of 40 patients per group) was 1 and the “Deterioration of the Chest X-ray picture assessed on the 5th day (number of patients)” value (SARS-CoV-2; of 40 patients per group) was 4.
